The text below walks through data of patent US7452865B2, “Antagonistic analogs of GH RH (2003)” (The Administrare's of the Tulane Educational Fund, priority 2004, dated 2008).

Marks after values point to notes of the source that are not given here. Square brackets hold non-standard residues; d marks the D form. Peptide text beside a SMILES is read from it. * marks the point of attachment. Phe(4-Cl) = N[C@@H](Cc1ccc(Cl)cc1)C(=O)O; Dip = N[C@H](C(=O)O)C(c1ccccc1)c1ccccc1; HOOC(CH2)8CO = O=C(O)CCCCCCCCC(=O)*; hArg = N=C(N)NCCCC[C@H](N)C(=O)O; Cit = NC(=O)NCCC[C@H](N)C(=O)O; Nle = CCCC[C@H](N)C(=O)O; Octanoyl = CCCCCCCC(=O)*; Abu = CC[C@H](N)C(=O)O; PhAc = O=C(Cc1ccccc1)*

For test [1], the system named is hGH-RH(1-29)NH2 induced GH release. The experiment in a line: Inhibition of GH release in superfused rat pituitary system. The test is classed as cell-based. To be noted: for GH response (% of control) 0 min / GH response (% of control) 30 min / GH response (% of control) 60 min / GH response (% of control) 90 min / GH response (% of control) 120 min: antagonist 30 nM; for GH response (% of control) 0 min: 1 nM hGH-RH(1-29)NH2 at 0 min; for GH response (% of control) 30 min: 1 nM hGH-RH(1-29)NH2 at 30 min; for GH response (% of control) 60 min: 1 nM hGH-RH(1-29)NH2 at 60 min; for GH response (% of control) 90 min: 1 nM hGH-RH(1-29)NH2 at 90 min; for GH response (% of control) 120 min: 1 nM hGH-RH(1-29)NH2 at 120 min; for endocrine antagonistic potency: inhibition of the GH release stimulated by hGH-RH(1-29)NH2 (in words): general statement, in vitro and in vivo. In a few lines: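 GH output was quantified by double-antibody RIA in superfusates of rat pituitary cells. Peptides were applied for 9 min at various concentrations before a 3-min 1 nM hGH-RH(1-29)NH2 pulse, with further pulses 30–120 min later; net integral responses given as percent of the original response.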

Test [2] relates to PC-3 human prostate cancer xenografts. The experiment in a line: PC-3 xenografts in nude mice, Experiment 3: tumor growth. The test is classed as in vivo. As for the experimental part:
Male nude mice were implanted s.c. with 3 mm^3 pieces of PC-3 human hormone-independent prostate cancer tissue on both flanks. When tumors reached a volume of approximately 65 mm^3, the mice were divided into 7 experimental groups with 8 to 9 animals in each group and received single daily injections for 28 days as follows: 1. Control (vehicle solution); 2. JV-1-38 (10 μg/day s.c.); 3. Peptide 35 (10 μg/day s.c.); 4. Peptide 36 (10 μg/day s.c.); 5. Peptide 37 (10 μd/day s.c.); 6. Peptide 39 (10 μg/day s.c.); 7. Peptide 41 (10 μg/day s.c.). Tumor volumes were measured twice a week. The experiment was ended on day 28 by sacrificing the mice under Isofurane anesthesia. Resulting tumors were cleaned, weighed, and snapfrozen until further analyses. Trunk blood was collected from the abdominal aorta and serum was separated for RIA measurement of IGF-I. Statistical analyses of the measurement results were done by ANOVA followed by Fisher test; data are presented as the means±S.E.

For test [3], the system named is GH-RH receptor isoforms on membrane fractions of human PC-3 prostate tumors. The test is classed as binding. To be noted: for binding affinities to the tumoral receptors for GH-RH (in words): general statement. An excerpt: Ligand competition assays with ^125I-labeled GH-RH antagonist JV-1-42 were used to determine the binding affinities of GH-RH analogs to the GH-RH receptor isoforms on membrane fractions of human PC-3 prostate tumors. The methods used have been described in detail (Halmos G, Schally A V, Varga J L, Plonowski A, Rekasi Z, Czompoly T, Proc Natl Acad Sci USA 97: 10555-10560, 2000; Halmos G, Schally A V, Czompoly T, Krupa M, Varga J L, Rekasi Z, J Clin Endocrinol Metab 87: 4707-4714, 2002), hereby incorporated by reference. Briefly, radioiodinated derivatives of JV-142 are prepared by the chloramine-T method. PC-3 tumors, grown as xenografts in nude mice, are used to prepare crude membranes. PC-3 membrane homogenates are incubated with [^125I]JV-142 and increasing concentrations (10^−12 to 10^−6 M) of nonradioactive antagonist peptides as competitors. The pellet is separated by centrifugation and counted for radioactivity in a gamma-counter. The final binding affinities are estimated by K1 (dissociation constant of the inhibitor-receptor complex) and are determined by the Ligand PC and McPherson computer programs of Munson and Rodbard (P. J. Munson and D. Rodbard, Anal. Biochem. […]: 220-239, 1980). Relative affinities (R.A.) compared to reference peptides such as JV-1-36 or JV-1-38, are calculated as the ratio of K1 of the reference peptide to the K, of the tested GH-RH antagonist.

The mark [4] stands for this setting: 10 μg/day s.c., 28 days, vs control.

For `CCCC[C@H](NC(=O)[C@@H](NC(=O)[C@H](CC(=O)O)NC(=O)[C@H](CCC(N)=O)NC(=O)[C@H](CC(C)C)NC(=O)[C@H](CC(C)C)NC(=O)[C@H](CCCCN)NC(=O)[C@H](CCCNC(=N)N)NC(=O)[C@H](C)NC(=O)[C@H](CO)NC(=O)[C@H](CC(C)C)NC(=O)[C@H](CCC(N)=O)NC(=O)[C@H](CC)NC(=O)[C@H](CC(C)C)NC(=O)[C@@H](NC(=O)[C@H](CCCCN)NC(=O)[C@H](CCCNC(=N)N)NC(=O)[C@@H](NC(=O)[C@H](CCCCNC(=N)N)NC(=O)[C@H](CC(N)=O)NC(=O)[C@@H](NC(=O)[C@H](Cc1ccc(Cl)cc1)NC(=O)[C@@H](NC(=O)[C@H](C)NC(=O)[C@H](CC(=O)O)NC(=O)[C@@H](CCCNC(=N)N)NC(=O)[C@H](Cc1ccc(O)cc1)NC(=O)Cc1ccccc1)[C@@H](C)CC)[C@@H](C)O)C(c1ccccc1)c1ccccc1)C(C)C)[C@@H](C)CC)C(=O)N[C@H](CCCNC(=N)N)C(=O)N[C@@H](CCCCNC(=N)N)C(N)=O` [Peptide 36, [PhAc-Tyr^1, D-Arg^2, Phe(pCl)^6, Har^9, Dip^10, Abu^15, Nle^27, D-Arg^28, Har^29]hGH-RH(1-29)NH2] (PhAc-Y[dR]DAI[Phe(4-Cl)]TN[hArg][Dip]RKVL[Abu]QLSARKLLQDI[Nle][dR][hArg]-NH2), in test [1], the “GH response (% of control) 0 min” value is recorded as 104 % of control, the “GH response (% of control) 30 min” value is recorded as 90 % of control, the “GH response (% of control) 60 min” value is listed as 112 % of control and the “GH response (% of control) 90 min” value is reported as 97 % of control. Also, the “GH response (% of control) 120 min” value in test [1] is listed as 120 % of control. For the same compound, the “antitumor effect on PC-3 tumors (in words)” value in test [2] (10 μg/day) was “more potent antitumor effect than reference peptide JV-1-38”. For the same compound, in test [2] (10 μg/day s.c., 28 days), the “Tumor volume (mm^3) Final” value is 214 ± 72.6** mm^3, the “Tumor volume doubling time” value turned out to be 18.7 ± 3.83 days and the “Tumor weight” value was determined as 361 ± 89.6 mg. In test [2] (setting [4]), the “Tumor volume Final (% inhibition)” value is “(76%)” and the “Tumor weight (% inhibition)” value is recorded as “(48%)”. For the same compound, the “Tumor volume (mm^3) Initial” value in test [2] (at start of treatment) is recorded as 68.0 ± 11.7 mm^3. Also, the “binding affinities to the tumoral receptors for GH-RH (in words)” value (“binding affinities” below) in test [3] is listed as “extremely high binding affinities”.
Take `CCCCCCCC(=O)N[C@@H](Cc1ccc(O)cc1)C(=O)N[C@H](CCCNC(=N)N)C(=O)N[C@@H](CC(=O)O)C(=O)N[C@@H](C)C(=O)N[C@H](C(=O)N[C@@H](Cc1ccc(Cl)cc1)C(=O)N[C@H](C(=O)N[C@@H](CC(N)=O)C(=O)N[C@@H](CCCNC(=N)N)C(=O)N[C@@H](Cc1ccc(O)cc1)C(=O)N[C@@H](CCCNC(=N)N)C(=O)N[C@@H](CCCCN)C(=O)N[C@H](C(=O)N[C@@H](CC(C)C)C(=O)N[C@@H](CC)C(=O)N[C@@H](CCC(N)=O)C(=O)N[C@@H](CC(C)C)C(=O)N[C@@H](CO)C(=O)N[C@@H](C)C(=O)N[C@@H](CCCNC(=N)N)C(=O)N[C@@H](CCCCN)C(=O)N[C@@H](CC(C)C)C(=O)N[C@@H](CC(C)C)C(=O)N[C@@H](CCC(N)=O)C(=O)N[C@@H](CC(=O)O)C(=O)N[C@H](C(=O)N[C@@H](CCCC)C(=O)N[C@H](CCCNC(=N)N)C(=O)N[C@@H](CCCCNC(=N)N)C(N)=O)[C@@H](C)CC)C(C)C)[C@@H](C)O)[C@@H](C)CC` [Peptide 4, [CH3(CH2)6CO-Tyr^1, D-Arg^2, Phe(pCl)^6, Arg^9, Abu^15, Nle^27, D-Arg^28, Har^29]hGH-RH(1-29)NH2] (Octanoyl-Y[dR]DAI[Phe(4-Cl)]TNRYRKVL[Abu]QLSARKLLQDI[Nle][dR][hArg]-NH2): in test [1], the “GH response (% of control) 0 min” value is reported as 5 % of control, the “GH response (% of control) 30 min” value is 0 % of control, the “GH response (% of control) 60 min” value is on record as 12 % of control and the “GH response (% of control) 90 min” value is 8 % of control. In addition, in test [1], the “GH response (% of control) 120 min” value was 18 % of control and the “endocrine antagonistic potency: inhibition of the GH release stimulated by hGH-RH(1-29)NH2 (in words)” value was “high endocrine antagonistic potencies”. Moreover, in test [3], the “Relative Affinities (R.A.) to membrane receptors on PC-3 human prostate cancers” value came out at 53 and the “binding affinities” value was “extremely high binding affinities”.
As to `CCCC[C@H](NC(=O)[C@@H](NC(=O)[C@H](CC(=O)O)NC(=O)[C@H](CCC(N)=O)NC(=O)[C@H](CC(C)C)NC(=O)[C@H](CC(C)C)NC(=O)[C@H](CCCCN)NC(=O)[C@H](CCCNC(=N)N)NC(=O)[C@H](C)NC(=O)[C@H](CO)NC(=O)[C@H](CC(C)C)NC(=O)[C@H](CCC(N)=O)NC(=O)[C@H](CC)NC(=O)[C@H](CC(C)C)NC(=O)[C@@H](NC(=O)[C@H](CCCCN)NC(=O)[C@H](CCCNC(=N)N)NC(=O)[C@H](Cc1ccc(O)cc1)NC(=O)[C@H](CCCNC(=N)N)NC(=O)[C@H](CC(N)=O)NC(=O)[C@@H](NC(=O)[C@H](Cc1ccc(Cl)cc1)NC(=O)[C@@H](NC(=O)[C@H](C)NC(=O)[C@H](CC(=O)O)NC(=O)[C@@H](CCCNC(=N)N)NC(=O)[C@H](Cc1ccc(O)cc1)NC(=O)CCCCCCCCC(=O)O)[C@@H](C)CC)[C@@H](C)O)C(C)C)[C@@H](C)CC)C(=O)N[C@H](CCCNC(=N)N)C(=O)N[C@@H](CCCCNC(=N)N)C(N)=O` [Peptide 7, [HOOC(CH2)8CO-Tyr^1, D-Arg^2, Phe(pCl)^6, Arg^9, Abu^15, Nle^27, D-Arg^28, Har^29]hGH-RH(1-29)NH2] ({HOOC(CH2)8CO}-Y[dR]DAI[Phe(4-Cl)]TNRYRKVL[Abu]QLSARKLLQDI[Nle][dR][hArg]-NH2), in test [1], the “GH response (% of control) 0 min” value was 23 % of control, the “GH response (% of control) 30 min” value is 13 % of control, the “GH response (% of control) 60 min” value is on record as 11 % of control and the “GH response (% of control) 90 min” value was 14 % of control. For the same compound, in test [1], the “GH response (% of control) 120 min” value is listed as 14 % of control and the “endocrine antagonistic potency: inhibition of the GH release stimulated by hGH-RH(1-29)NH2 (in words)” value is recorded as “high endocrine antagonistic potencies”. In test [3], the “Relative Affinities (R.A.) to membrane receptors on PC-3 human prostate cancers” value turned out to be 12 and the “binding affinities” value is reported as “extremely high binding affinities”.
In the case of `CCCC[C@H](NC(=O)[C@@H](NC(=O)[C@H](CC(=O)O)NC(=O)[C@H](CCC(N)=O)NC(=O)[C@H](CC(C)C)NC(=O)[C@H](CC(C)C)NC(=O)[C@H](CCCCN)NC(=O)[C@H](CCCNC(=N)N)NC(=O)[C@H](C)NC(=O)[C@H](CO)NC(=O)[C@H](CC(C)C)NC(=O)[C@H](CCC(N)=O)NC(=O)[C@H](CC)NC(=O)[C@H](CC(C)C)NC(=O)[C@@H](NC(=O)[C@H](CCCCN)NC(=O)[C@H](CCCNC(=N)N)NC(=O)[C@H](Cc1ccc(O)cc1)NC(=O)[C@H](CCCNC(N)=O)NC(=O)[C@H](CCCNC(N)=O)NC(=O)[C@@H](NC(=O)[C@H](Cc1ccc(Cl)cc1)NC(=O)[C@@H](NC(=O)[C@H](C)NC(=O)[C@H](CC(=O)O)NC(=O)[C@@H](CCCNC(=N)N)NC(=O)[C@H](Cc1ccc(O)cc1)NC(=O)Cc1ccccc1)[C@@H](C)CC)[C@@H](C)O)C(C)C)[C@@H](C)CC)C(=O)N[C@H](CCCNC(=N)N)C(=O)N[C@@H](CCCCNC(=N)N)C(N)=O` [Peptide 22, [PhAc-Tyr^1, D-Arg^2, Phe(pCl)^6, Cit^8, Cit^9, Abu^15, Nle^27, D-Arg^28, Har^29]hGH-RH(1-29)NH2] (PhAc-Y[dR]DAI[Phe(4-Cl)]T[Cit][Cit]YRKVL[Abu]QLSARKLLQDI[Nle][dR][hArg]-NH2), in test [1], the “GH response (% of control) 0 min” value is 22 % of control, the “GH response (% of control) 30 min” value is listed as 26 % of control, the “GH response (% of control) 60 min” value is reported as 27 % of control and the “GH response (% of control) 90 min” value is listed as 45 % of control. Besides, the “binding affinities” value in test [3] is reported as “extremely high binding affinities”.
